From patent US20110028566A1, “COMPOSITIONS AND PRODUCTS CONTAINING CYCLOALIPHATIC DIOL ANTIMICROBIAL AGENTS AND METHODS OF USING THE COMPOSITIONS AND PRODUCTS” (EASTMAN CHEMICAL COMPANY, priority 2009, published 2011)

What was measured:
Assay type in all cases: cell-based
Aeromonas sp. = experiment: Microbial challenge testing in BPW; conditions: for Grade code, Aeromonas sp, 3 Days / Grade code, Aeromonas sp, 14 Days / Grade code, Aeromonas sp, 30 Days: BPW, w/v % in label, average of replicates
Method in brief: (§1)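 Test materials, dosed as w/v % in BPW pH 7.0 with 1% dextrose, were challenged with bacteria at 10^5–10^6 cfu/mL starting count. Inocula came from 96 h or longer TSB-dextrose cultures, and counts were checked by PCA spread-plating. Samples were incubated 14 days at 35 °C, then at ambient temperature.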

Proteus vulgaris = experiment: Microbial challenge testing in BPW; conditions: for Grade code, P. vulgaris, 3 Days / Grade code, P. vulgaris, 13 Days / Grade code, P. vulgaris, 30 Day: BPW, w/v % in label, average of replicates
Method in brief: as §1

Malassezia furfur = experiment: Challenge testing with pathogenic fungi in SDB; conditions: SDB with olive oil and Tween 80, w/v % in label, pellicle formation; for Grade code, Pathogenic Fungi, M. furfur, 14 Days: 14 days incubation; for Grade code, Pathogenic Fungi, M. furfur, 30 Days: 30 days incubation
Method: (§2) Both M. canis and Trichophyton rubrum were grown on Sabouraud dextrose broth (SDB) (pH 5.6), while Malassezia fufur was grown in SDB supplemented with 2% (v/v) of olive oil and 0.2% (v/v) of Tween™ 80; incubation was at 22° C.±2° C. under continuous agitation by stirring for 10 days. The organisms were grown to a cell concentration of between 10^3 and 10^4 cfu/mL. The actual inoculation cell concentration of these challenges was determined by diluting in sterile buffer water and (spread-plate method) plating for enumeration.
(§3) Challenge organisms were used to inoculate tubes containing each test material (CHDM, etc) or combination of test materials, at concentrations given in Table 5, in SDB (or for M. furfur, in SDB supplemented with olive oil and Tween™ 80). The inoculations were in the amount of 1.5 mL aliquots of each culture with static incubation at 22±2° C. Subcultures were made after 3-, 14-, and 30-days incubation. All challenges were conducted in triplicate. In the case of M. canis, the growth response was assessed by the visual presence or absence of growth in the tubes; in the case of T. rubrum, a respiratory dye (0.2% w/v aqueous INT solution: 2-(4-iodophenyl)-3-(4-nitrophenyl)-5-phenyl tetrazolium chloride) was added to the tubes, turning red if the organism was viable; and, finally, in the case of M. furfur, the growth response was assessed based upon visible pellicle formation in the tubes at the meniscus. The fungal growth in each tube was assigned a grade code as follows:
(§4) 0: No visible growth 1: Some growth in tube 2: Moderate growth in tube 3: Good growth in tube 4: Extreme growth in tube
(§5) All test material concentrations are given as w/v %. The grade codes given are the average of the grade codes for duplicate or triplicate samples.
(§6) Table 5 compares the antimicrobial activity of 1,4-CHDM (AB) alone to 1,4-CHDM in combination with EDTA, phenoxyethanol (PE), and caprylyl glycol (CG). CHDM at 0.5% was tested with EDTA, and at 1.25 and 2.5% with EDTA, PE, and CG. (Note that the combination of CHDM with only EDTA was not tested against pathogenic fungi.) Results are also given for EDTA, PE, and CG alone, so the result for each mixture can be compared to the antimicrobial activity for each of its components individually. […] Possible synergies were determined by treating the grade code as an estimate of the log of the microbial count (log of cfu/mL). Log reductions can then be estimated by subtracting each grade code from the grade code for broth alone (grade code 5, except for the pathogenic fungi).

Trichophyton rubrum = experiment: Challenge testing with pathogenic fungi in SDB; conditions: w/v % in label, INT respiratory dye; for Grade code, Pathogenic Fungi, T. ruburm, 3 Days: 3 days incubation; for Grade code, Pathogenic Fungi, T. ruburm, 14 Days: 14 days incubation; for Grade code, Pathogenic Fungi, T. ruburm, 30 Days: 30 days incubation
Method: as §2, §3, §4, §5, §6

[1] = 3 days incubation, listed as 0.5% AB
[2] = 3 days incubation, listed as 1.25% AB
[3] = 3 days incubation, listed as 2.5% AB
[4] = 30 days incubation, listed as 0.5% AB
[5] = 30 days incubation, listed as 1.25% AB
[6] = 30 days incubation, listed as 2.5% AB

## OCC1CCC(CO)CC1 (stereo not shown) [1,4-CHDM, 1,4-cyclohexanedimethanol]
Aeromonas sp.; 0.5%, 3 days incubation
  Grade code Aeromonas sp: 5 (More than 10,000 colonies estimated (thus >100,000 cfu/mL))
Aeromonas sp.; 0.5%, 14 days incubation
  Grade code Aeromonas sp: 4 (1001 to 10,000 colonies (thus 10,000 cfu/mL to 100,000 cfu/mL))
Aeromonas sp.; 0.5%, 30 days incubation
  Grade code Aeromonas sp: 4 (1001 to 10,000 colonies (thus 10,000 cfu/mL to 100,000 cfu/mL))
Aeromonas sp.; 1.25%, 3 days incubation
  Grade code Aeromonas sp: 4 (1001 to 10,000 colonies (thus 10,000 cfu/mL to 100,000 cfu/mL))
Aeromonas sp.; 1.25%, 14 days incubation
  Grade code Aeromonas sp: 3 (101 to 1000 colonies (thus 1000 to 10,000 cfu/mL))
Aeromonas sp.; 1.25%, 30 days incubation
  Grade code Aeromonas sp: 2 (52 to 100 colonies counted (thus 520 to 1000 cfu/mL))
Aeromonas sp.; 2.5%, 3 days incubation
  Grade code Aeromonas sp: 3 (101 to 1000 colonies (thus 1000 to 10,000 cfu/mL))
Aeromonas sp.; 2.5%, 14 days incubation
  Grade code Aeromonas sp: 1 (1 to 51 colonies counted (thus 10 to 510 cfu/mL))
Aeromonas sp.; 2.5%, 30 days incubation
  Grade code Aeromonas sp: 0 (No growth detected or <1 colony (thus <10 cfu/mL))
Aeromonas sp.; [1]
  Grade code, Aeromonas sp, 3 Days: 5 (More than 10,000 colonies estimated (thus >100,000 cfu/mL))
Aeromonas sp.; [2]
  Grade code, Aeromonas sp, 3 Days: 4 (1001 to 10,000 colonies (thus 10,000 cfu/mL to 100,000 cfu/mL))
Aeromonas sp.; [3]
  Grade code, Aeromonas sp, 3 Days: 3 (101 to 1000 colonies (thus 1000 to 10,000 cfu/mL))
Aeromonas sp.; 14 days incubation, listed as 0.5% AB
  Grade code, Aeromonas sp, 14 Days: 4 (1001 to 10,000 colonies (thus 10,000 cfu/mL to 100,000 cfu/mL))
Aeromonas sp.; 14 days incubation, listed as 1.25% AB
  Grade code, Aeromonas sp, 14 Days: 3 (101 to 1000 colonies (thus 1000 to 10,000 cfu/mL))
Aeromonas sp.; 14 days incubation, listed as 2.5% AB
  Grade code, Aeromonas sp, 14 Days: 1 (1 to 51 colonies counted (thus 10 to 510 cfu/mL))
Aeromonas sp.; [4]
  Grade code, Aeromonas sp, 30 Days: 4 (1001 to 10,000 colonies (thus 10,000 cfu/mL to 100,000 cfu/mL))
Aeromonas sp.; [5]
  Grade code, Aeromonas sp, 30 Days: 2 (52 to 100 colonies counted (thus 520 to 1000 cfu/mL))
Aeromonas sp.; [6]
  Grade code, Aeromonas sp, 30 Days: 0 (No growth detected or <1 colony (thus <10 cfu/mL))
Proteus vulgaris; 0.5%, 3 days incubation
  Grade code P. vulqaris: 4 (1001 to 10,000 colonies (thus 10,000 cfu/mL to 100,000 cfu/mL))
Proteus vulgaris; 0.5%, 13 days incubation
  Grade code P. vulqaris: 4 (1001 to 10,000 colonies (thus 10,000 cfu/mL to 100,000 cfu/mL))
Proteus vulgaris; 0.5%, 30 days incubation
  Grade code P. vulqaris: 4 (1001 to 10,000 colonies (thus 10,000 cfu/mL to 100,000 cfu/mL))
Proteus vulgaris; 1.25%, 3 days incubation
  Grade code P. vulqaris: 3 (101 to 1000 colonies (thus 1000 to 10,000 cfu/mL))
Proteus vulgaris; 1.25%, 13 days incubation
  Grade code P. vulqaris: 2 (52 to 100 colonies counted (thus 520 to 1000 cfu/mL))
Proteus vulgaris; 1.25%, 30 days incubation
  Grade code P. vulqaris: 0 (No growth detected or <1 colony (thus <10 cfu/mL))
Proteus vulgaris; 2.5%, 3 days incubation
  Grade code P. vulqaris: 1 (1 to 51 colonies counted (thus 10 to 510 cfu/mL))
Proteus vulgaris; 2.5%, 13 days incubation
  Grade code P. vulqaris: 0 (No growth detected or <1 colony (thus <10 cfu/mL))
Proteus vulgaris; 2.5%, 30 days incubation
  Grade code P. vulqaris: 0 (No growth detected or <1 colony (thus <10 cfu/mL))
Proteus vulgaris; [1]
  Grade code, P. vulgaris, 3 Days: 4 (1001 to 10,000 colonies (thus 10,000 cfu/mL to 100,000 cfu/mL))
Proteus vulgaris; [2]
  Grade code, P. vulgaris, 3 Days: 3 (101 to 1000 colonies (thus 1000 to 10,000 cfu/mL))
Proteus vulgaris; [3]
  Grade code, P. vulgaris, 3 Days: 1 (1 to 51 colonies counted (thus 10 to 510 cfu/mL))
Proteus vulgaris; 13 days incubation, listed as 0.5% AB
  Grade code, P. vulgaris, 13 Days: 4 (1001 to 10,000 colonies (thus 10,000 cfu/mL to 100,000 cfu/mL))
Proteus vulgaris; 13 days incubation, listed as 1.25% AB
  Grade code, P. vulgaris, 13 Days: 2 (52 to 100 colonies counted (thus 520 to 1000 cfu/mL))
Proteus vulgaris; 13 days incubation, listed as 2.5% AB
  Grade code, P. vulgaris, 13 Days: 0 (No growth detected or <1 colony (thus <10 cfu/mL))
Proteus vulgaris; [4]
  Grade code, P. vulgaris, 30 Day: 4 (1001 to 10,000 colonies (thus 10,000 cfu/mL to 100,000 cfu/mL))
Proteus vulgaris; [5]
  Grade code, P. vulgaris, 30 Day: 0 (No growth detected or <1 colony (thus <10 cfu/mL))
Proteus vulgaris; [6]
  Grade code, P. vulgaris, 30 Day: 0 (No growth detected or <1 colony (thus <10 cfu/mL))
Malassezia furfur; 3 days incubation
  Grade code, Pathogenic Fungi, M. furfur, 3 Days: 0
Malassezia furfur; listed as 0.5% AB
  Grade code, Pathogenic Fungi, M. furfur, 14 Days: 1
  Grade code, Pathogenic Fungi, M. furfur, 30 Days: 2
Malassezia furfur; listed as 1.25% AB
  Grade code, Pathogenic Fungi, M. furfur, 14 Days: 0
  Grade code, Pathogenic Fungi, M. furfur, 30 Days: 0
Malassezia furfur; listed as 2.5% AB
  Grade code, Pathogenic Fungi, M. furfur, 14 Days: 0
  Grade code, Pathogenic Fungi, M. furfur, 30 Days: 0
Trichophyton rubrum; listed as 0.5% AB
  Grade code, Pathogenic Fungi, T. ruburm, 3 Days: 1
  Grade code, Pathogenic Fungi, T. ruburm, 14 Days: 1
  Grade code, Pathogenic Fungi, T. ruburm, 30 Days: 1
Trichophyton rubrum; listed as 1.25% AB
  Grade code, Pathogenic Fungi, T. ruburm, 3 Days: 0
  Grade code, Pathogenic Fungi, T. ruburm, 14 Days: 0
  Grade code, Pathogenic Fungi, T. ruburm, 30 Days: 0
Trichophyton rubrum; listed as 2.5% AB
  Grade code, Pathogenic Fungi, T. ruburm, 3 Days: 0
  Grade code, Pathogenic Fungi, T. ruburm, 14 Days: 0
  Grade code, Pathogenic Fungi, T. ruburm, 30 Days: 0

## CC1(C)C(O)C(C)(C)C1O (stereo not shown) [TMCD, 2,2,4,4-tetramethyl-1,3-cyclobutanediol]
Aeromonas sp.; 0.5%, 3 days incubation
  Grade code Aeromonas sp: 5 (More than 10,000 colonies estimated (thus >100,000 cfu/mL))
Aeromonas sp.; 0.5%, 14 days incubation
  Grade code Aeromonas sp: 4 (1001 to 10,000 colonies (thus 10,000 cfu/mL to 100,000 cfu/mL))
Aeromonas sp.; 0.5%, 30 days incubation
  Grade code Aeromonas sp: 4 (1001 to 10,000 colonies (thus 10,000 cfu/mL to 100,000 cfu/mL))
Aeromonas sp.; 1.25%, 3 days incubation
  Grade code Aeromonas sp: 4 (1001 to 10,000 colonies (thus 10,000 cfu/mL to 100,000 cfu/mL))
Aeromonas sp.; 1.25%, 14 days incubation
  Grade code Aeromonas sp: 4 (1001 to 10,000 colonies (thus 10,000 cfu/mL to 100,000 cfu/mL))
Aeromonas sp.; 1.25%, 30 days incubation
  Grade code Aeromonas sp: 4 (1001 to 10,000 colonies (thus 10,000 cfu/mL to 100,000 cfu/mL))
Aeromonas sp.; 2.5%, 3 days incubation
  Grade code Aeromonas sp: 4 (1001 to 10,000 colonies (thus 10,000 cfu/mL to 100,000 cfu/mL))
Aeromonas sp.; 2.5%, 14 days incubation
  Grade code Aeromonas sp: 2 (52 to 100 colonies counted (thus 520 to 1000 cfu/mL))
Aeromonas sp.; 2.5%, 30 days incubation
  Grade code Aeromonas sp: 3 (101 to 1000 colonies (thus 1000 to 10,000 cfu/mL))
Proteus vulgaris; 0.5%, 3 days incubation
  Grade code P. vulqaris: 4 (1001 to 10,000 colonies (thus 10,000 cfu/mL to 100,000 cfu/mL))
Proteus vulgaris; 0.5%, 13 days incubation
  Grade code P. vulqaris: 4 (1001 to 10,000 colonies (thus 10,000 cfu/mL to 100,000 cfu/mL))
Proteus vulgaris; 0.5%, 30 days incubation
  Grade code P. vulqaris: 4 (1001 to 10,000 colonies (thus 10,000 cfu/mL to 100,000 cfu/mL))
Proteus vulgaris; 1.25%, 3 days incubation
  Grade code P. vulqaris: 3 (101 to 1000 colonies (thus 1000 to 10,000 cfu/mL))
Proteus vulgaris; 1.25%, 13 days incubation
  Grade code P. vulqaris: 2 (52 to 100 colonies counted (thus 520 to 1000 cfu/mL))
Proteus vulgaris; 1.25%, 30 days incubation
  Grade code P. vulqaris: 0 (No growth detected or <1 colony (thus <10 cfu/mL))
Proteus vulgaris; 2.5%, 3 days incubation
  Grade code P. vulqaris: 4 (1001 to 10,000 colonies (thus 10,000 cfu/mL to 100,000 cfu/mL))
Proteus vulgaris; 2.5%, 13 days incubation
  Grade code P. vulqaris: 1 (1 to 51 colonies counted (thus 10 to 510 cfu/mL))
Proteus vulgaris; 2.5%, 30 days incubation
  Grade code P. vulqaris: 0 (No growth detected or <1 colony (thus <10 cfu/mL))
